As usually defined, the IC50 is the concentration needed to halve the response being measured. Read a high IC50 as lower potency.

Molecules are shown by their SMILES.

This is an account of results in US7964732B2, “Substituted bicyclocarboxyamide compounds” (Pfizer Inc., priority 2006, dated 2011).

T1 sequence (Q8NER1 whole entry): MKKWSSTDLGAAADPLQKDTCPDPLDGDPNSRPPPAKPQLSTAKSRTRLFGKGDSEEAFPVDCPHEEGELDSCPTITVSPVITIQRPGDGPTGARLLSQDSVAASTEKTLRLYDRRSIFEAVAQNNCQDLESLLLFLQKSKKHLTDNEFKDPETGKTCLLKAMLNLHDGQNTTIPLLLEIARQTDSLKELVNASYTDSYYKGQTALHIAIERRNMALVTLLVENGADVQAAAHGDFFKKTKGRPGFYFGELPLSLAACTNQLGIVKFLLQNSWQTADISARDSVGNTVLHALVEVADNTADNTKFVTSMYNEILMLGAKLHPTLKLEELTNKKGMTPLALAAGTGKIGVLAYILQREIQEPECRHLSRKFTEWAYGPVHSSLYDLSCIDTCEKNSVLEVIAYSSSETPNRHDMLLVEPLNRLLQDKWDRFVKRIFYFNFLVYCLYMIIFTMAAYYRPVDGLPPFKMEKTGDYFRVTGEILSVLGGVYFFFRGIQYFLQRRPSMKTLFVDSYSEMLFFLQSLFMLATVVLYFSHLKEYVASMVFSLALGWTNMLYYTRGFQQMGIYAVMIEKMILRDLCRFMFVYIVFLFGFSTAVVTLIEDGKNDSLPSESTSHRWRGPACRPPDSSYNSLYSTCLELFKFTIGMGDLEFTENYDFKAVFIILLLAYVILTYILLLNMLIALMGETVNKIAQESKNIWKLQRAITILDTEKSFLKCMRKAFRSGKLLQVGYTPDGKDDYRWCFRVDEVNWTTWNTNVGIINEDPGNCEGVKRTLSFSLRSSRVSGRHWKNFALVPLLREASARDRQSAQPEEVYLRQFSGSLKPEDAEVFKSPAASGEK

This test has as its target T1, human VR1 (Homo sapiens, UniProt Q8NER1).
T1 construct: host or cells: cells that express human VR1 receptors (cell type not specified)
The test is described as follows: Human VR1 antagonist assay (Ca2+ imaging assay using human VR1 highly expressing cells). It counts as cell-based. The settings on record: intracellular Ca2+ imaging (fura-2). An excerpt:
VR1 antagonistic activity can be determined by the Ca^2+ imaging assay using human VR1 highly expressing cells. The cells that highly express human VR1 receptors are obtainable from several different conventional methods. The one standard method is cloning from human Dorsal Root Ganglion (DRG) or kidney according to the methods such as described in the journal article; Nature, 389, pp 816-824, 1997. Alternatively VR1 receptors highly expressing human keratinocytes are also known and published in the journal article (Biochemical and Biophysical Research Communications, 291, pp 124-129, 2002). […] Furthermore, the method to up regulate human VR1 gene, which is usually a silent gene or don't produce detectable level of VR1 receptors, is also available to obtain propriety cells. Such genetic modification method was described in detail; Nat. Biotechnol., 19, pp 440-445, 2001.
The cells that express human VR1 receptors were maintained in culture flask at 37° C. in an environment containing 5% CO2 until use in the assay. The intracellular Ca^2+ imaging assay to determine VR1 antagonistic activities were done by following procedures.
The culture medium was removed from the flask and fura-2/AM fluorescent calcium indicator was added to the flask at a concentration of 5 μM in the medium. The flask was placed in CO2 incubator and incubated for 1 hour. Then the cells expressing the human VR1 receptors were detached from the flask follow by washing with phosphate buffer saline, PBS(−) and re-suspended in assay buffer. The 80 μl of aliquot of cell suspension (3.75×10^5 cells/ml) was added to the assay plate and the cells were spun down by centrifuge (950 rpm, 20° C., 3 minutes).
Compounds of the examples were tested in the Human VR1 antagonist assay described above.
The capsaicin-induced changes in the intracellular calcium concentration were monitored using FDSS 6000 (Hamamatsu Photonics, Japan), a fluorometric imaging system. The cell suspension in Krebs-Ringer HEPES (KRH) buffer (115 mM NaCl, 5.4 mM KCl, 1 mM MgSO4, 1.8 mM CaCl2, 11 mM D-Glucose, 25 mM HEPES, 0.96 mM Na2HPO4, pH 7.3) were pre-incubated with varying concentrations of the test compounds or KRH buffer (buffer control) for 15 minutes at room temperature under the dark condition. Then capsaicin solution, which gives 300 nM in assay mixture, was automatically added to the assay plate by the FDSS 6000.
The Acid-induced changes in the intracellular calcium concentration were monitored using FDSS 6000 (Hamamatsu Photonics, Japan), a fluorometric imaging system. The cell suspension in resting buffer (HBSS supplemented with 10 mM HEPES, pH 7.4) were pre-incubated with varying concentrations of the test compounds or resting buffer (buffer control) for 15 minutes at room temperature under the dark condition. The cells were automatically added the stimulating solution (HBSS supplemented with MES, final assay buffer pH5.8) by the FDSS 6000.
The monitoring of the changes in the fluorescence signals (λex=340 nm/380 nm, λem=510-520 nm) was initiated at 1 minute prior to the addition of capsaicin solution or acidic buffer and continued for 5 minute.
Regarding `Cc1c(C(C)NC(=O)c2ccc3nc(C(C)(C)C(F)(F)F)ccc3c2)cnn1CC(C)(C)O` (centres unmarked) [Example 12, N-(1-(1-(2-hydroxy-2-methylpropyl)-5-methyl-1H-pyrazol-4-yl)ethyl)-2-(2,2,2-trifluoro-1,1-dimethylethyl)quinoline-6-carboxamide], half-maximal inhibition (IC50) was put at 79.9 nM.

The molecule `Cc1c(CNC(=O)c2ccc3cc(C(C)(C)C)ccc3n2)cnn1C` [Example 34, 6-tert-butyl-N-[(1,5-dimethyl-1H-pyrazol-4-yl)methyl]quinoline-2-carboxamide] had an IC50 of 254 nM.

Take `Cc1c(C(C)NC(=O)c2ccc3nc(C(C)(C)C(F)(F)F)ccc3c2)cnn1C1CCC1` (centres unmarked) [Example 17]: the IC50 stood at 124 nM.

`CCn1ncc(CNC(=O)c2ccc3nc(C(C)(C)C(F)(F)F)ccc3c2)c1C` [Example 15, N-[(1-ethyl-5-methyl-1H-pyrazol-4-yl)methyl]-2-(2,2,2-trifluoro-1,1-dimethylethyl)quinoline-6-carboxamide] came in with an IC50 of 71.7 nM.

For the molecule `C[C@@H](NC(=O)c1ccc2nc(C(C)(C)C(F)(F)F)ccc2c1)c1cnn(C)c1CO` [Example 4, (R)-N-(1-(5-(hydroxymethyl)-1-methyl-1H-pyrazol-4-yl)ethyl)-2-(2,2,2-trifluoro-1,1-dimethylethyl)quinoline-6-carboxamide], the IC50 worked out at 607 nM.

As to `C[C@@H](NC(=O)c1ccc2nc(C(C)(C)C(F)(F)F)ccc2c1)c1cnn(C)c1Cl` [Example 18a, (R)-N-(1-(5-chloro-1-methyl-1H-pyrazol-4-yl)ethyl)-2-(2,2,2-trifluoro-1,1-dimethylethyl)quinoline-6-carboxamide], the IC50 was 3 nM.

`Cc1c([C@@H](C)NC(=O)c2ccc3nc(C4(C)CC4)ccc3c2)cnn1C` [Example 13, N-[(1R)-1-(1,5-dimethyl-1H-pyrazol-4-yl)ethyl]-2-(1-methylcyclopropyl) quinoline-6-carboxamide]: it took 313 nM to reach half-maximal inhibition (IC50).

Take `C[C@@H](NC(=O)c1ccc2nc(C(C)(C)C(F)(F)F)ccc2c1)c1cnn(C)c1C#N` [Example 3, (R)-N-(1-(5-cyano-1-methyl-1H-pyrazol-4-yl)ethyl)-2-(2,2,2-trifluoro-1,1-dimethylethyl)quinoline-6-carboxamide]: the IC50 came out at 322 nM.

`Cc1c(C(C)NC(=O)c2ccc3cc(C(F)(F)F)ccc3c2)cnn1C` (centres unmarked) [Example 29, N-(1-(1,5-dimethyl-1H-pyrazol-4-yl)ethyl)-6-(trifluoromethyl)-2-naphthamide]: the 50% inhibitory concentration (IC50) turned out to be 189 nM.

Turning to `Cc1nn(C)c(C)c1CNC(=O)c1ccc2cc(C(C)(C)C)ccc2c1` [Example 35, 6-tert-butyl-N-((1,3,5-trimethyl-1H-pyrazol-4-yl)methyl)-2-naphthamide], the IC50 stood at 1870 nM.

In the case of `Cc1c(C(C)NC(=O)c2ccc3nc(C(C)(C)C(F)(F)F)ccc3c2)cnn1CCO` (centres unmarked) [Example 11, N-(1-(1-(2-hydroxyethyl)-5-methyl-1H-pyrazol-4-yl)ethyl)-2-(2,2,2-trifluoro-1,1-dimethylethyl)quinoline-6-carboxamide], half-maximal inhibition (IC50) required 16.4 nM.

In the case of `Cc1c(CNC(=O)c2ccc3nc(C(C)(C)C(F)(F)F)ccc3c2)cnn1C` [Example 2, N-[(1,5-dimethyl-1H-pyrazol-4-yl)methyl]-2-(2,2,2-trifluoro-1,1-dimethylethyl)quinoline-6-carboxamide], the IC50 is 261 nM.

In turn, `Cc1c(C(C)NC(=O)c2ccc3nc(C(C)(C)C(F)(F)F)ccc3c2)cnn1CC(F)(F)F` (centres unmarked) [Example 5, N-(1-(5-methyl-1-(2,2,2-trifluoroethyl)-1H-pyrazol-4-yl)ethyl)-2-(2,2,2-trifluoro-1,1-dimethylethyl)quinoline-6-carboxamide] had an IC50 of 44.1 nM.

In turn, `CCC(NC(=O)c1ccc2nc(C(C)(C)C(F)(F)F)ccc2c1)c1cnn(C)c1C` (racemic) [Example 7, N-[1-(1,5-dimethyl-1H-pyrazol-4-yl)propyl]-2-(2,2,2-trifluoro-1,1-dimethylethyl)quinoline-6-carboxamide] displayed an IC50 of 145 nM.

The molecule `Cc1c([C@@H](C)NC(=O)c2ccc3cc(C(C)(O)C(F)(F)F)ccc3c2)cnn1C` (mixture of isomers) [Example 31, N-[(1R)-1-(1,5-dimethyl-1H-pyrazol-4-yl)ethyl]-6-(2,2,2-trifluoro-1-hydroxy-1-methylethyl)-2-naphthamide] came in with an IC50 of 177 nM.

In turn, `Cn1cc(CNC(=O)c2ccc3cc(C(C)(C)C)ccc3c2)cn1` [Example 36] yielded an IC50 of 3480 nM.

`CCn1ncc(C(C)NC(=O)c2ccc3nc(C(C)(C)C(F)(F)F)ccc3c2)c1C` (centres unmarked) [Example 16, N-[1-(1-ethyl-5-methyl-1H-pyrazol-4-yl)ethyl]-2-(2,2,2-trifluoro-1,1-dimethylethyl)quinoline-6-carboxamide]: the concentration for half-maximal inhibition (IC50) came to 28.9 nM.

For `Cc1nn(C)cc1CNC(=O)c1ccc2cc(C(C)(C)C)ccc2c1` [Example 26, 6-tert-butyl-N-[(1,3-dimethyl-1H-pyrazol-4-yl)methyl]-2-naphthamide], 443 nM corresponded to half-maximal inhibition (IC50).

`COC(C)(c1ccc2cc(C(=O)NC(C)c3cnn(C)c3C)ccc2c1)C(F)(F)F` (centres unmarked) [Example 33, N-[1-(1,5-dimethyl-1H-pyrazol-4-yl)ethyl]-6-(2,2,2-trifluoro-1-methoxy-1-methylethyl)-2-naphthamide]: 139 nM corresponded to half-maximal inhibition (IC50).

`Cc1c(C(C)NC(=O)c2ccc3cc(C(C)(C)C)ccc3c2)cnn1C` (centres unmarked) [Example 24, 6-tert-butyl-N-[1-(1,5-dimethyl-1H-pyrazol-4-yl)ethyl]-2-naphthamide]: the IC50 stood at 23 nM.

`CCC(NC(=O)c1ccc2cc(C(C)(C)C)ccc2c1)c1cnn(C)c1C` (centres unmarked) [Example 28, 6-tert-butyl-N-(1-(1,5-dimethyl-1H-pyrazol-4-yl)propyl)-2-naphthamide] returned an IC50 of 57.4 nM.

In turn, `Cc1[nH]ncc1C(C)NC(=O)c1ccc2nc(C(C)(C)C(F)(F)F)ccc2c1` (centres unmarked) [Example 9, N-[1-(5-methyl-1H-pyrazol-4-yl)ethyl]-2-(2,2,2-trifluoro-1,1-dimethylethyl)quinoline-6-carboxamide] showed an IC50 of 323 nM.

Turning to `Cc1n[nH]c(C)c1CNC(=O)c1ccc2cc(C(C)(C)C)ccc2c1` [Example 25, 6-tert-butyl-N-[(3,5-dimethyl-1H-pyrazol-4-yl)methyl]-2-naphthamide], the IC50 was determined as 118 nM.

Take `CC[C@@H](NC(=O)c1ccc2nc(C(C)(C)C(F)(F)F)ccc2c1)c1cnn(C)c1C` (single isomer, unassigned) [Example 8]: the IC50 amounted to 66 nM.

The molecule `Cc1c(C(C)NC(=O)c2ccc3cc(C(C)(C)O)ccc3c2)cnn1C` (centres unmarked) [Example 37, N-[1-(1,5-dimethyl-1H-pyrazol-4-yl)ethyl]-6-(1-hydroxy-1-methylethyl)-2-naphthamide] displayed an IC50 of 1000 nM.

The molecule `Oc1cc2c(cc1O)CN(C(=S)NCCc1ccc(Cl)cc1)CCC2` [capsazepin, reference compound] had an IC50 of 237 to 455 nM.

Consider `Cc1c([C@@H](C)NC(=O)c2ccc3nc(C(C)(O)C(F)(F)F)ccc3c2)cnn1C` (some centres unmarked) [Example 14], for which the IC50 was found to be 63.7 nM.

For the molecule `Cc1c([C@@H](C)NC(=O)c2ccc3cc(C4(C)CC4)ccc3c2)cnn1C` [Example 30, N-[(1R)-1-(1,5-dimethyl-1H-pyrazol-4-yl)ethyl]-6-(1-methylcyclopropyl)-2-naphthamide], the IC50 amounted to 20.1 nM.

As for `Cc1c([C@@H](C)NC(=O)c2ccc3cc([C@@](C)(O)C(F)(F)F)ccc3c2)cnn1C` (single isomer, unassigned) [Example 32], the midpoint of inhibition, the IC50, lay at 52.7 nM.

As to `Cc1c(CNC(=O)c2ccc3cc(C(C)(C)C)ccc3c2)cnn1C` [Example 27, 6-tert-butyl-N-[(1,5-dimethyl-1H-pyrazol-4-yl)methyl]-2-naphthamide], the IC50 stood at 73 nM.

The molecule `Cc1c([C@@H](C)NC(=O)c2ccc3nc(C(F)(F)F)ccc3c2)cnn1C` [Example 23, (R)-N-(1-(1,5-dimethyl-1H-pyrazol-4-yl)ethyl)-2-(trifluoromethyl) quinoline-6-carboxamide] registered an IC50 of 121 nM.

Molecule `Cc1c([C@@H](C)NC(=O)c2ccc3cc([C@](C)(O)C(F)(F)F)ccc3c2)cnn1C` [Example 32a, N-[(1R)-1-(1,5-dimethyl-1H-pyrazol-4-yl)ethyl]-6-[(1S)-2,2,2-trifluoro-1-hydroxy-1-methylethyl]-2-naphthamide] gave an IC50 of 3190 nM.
